Results: publication PMC9118553, “In Vivo Bioconcentration of 10 Anionic Surfactants in Rainbow Trout Explained by In Vitro Data on Partitioning and S9 Clearance” (Environmental Science & Technology, 2022)
“And” between values parts separate entries of the source, which are not always exact repeats. Identical values can stand only once.

System: rainbow trout
Experiment: In vivo bioconcentration experiment with a mixture of anionic surfactants, flow-through aquaria, 10 °C, pH 7.8;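 as to Uptake rate constant kU: L kg-1 h-1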
Details: for Concentration in fish: individual fish
Description: The bioconcentration of a mixture of 10 anionic surfactants was measured in rainbow trout in water at pH 7.8. […] The experiment was conducted in flow-through aquaria with juvenile rainbow trout at 10 °C. Ethical approval for the experiments was obtained from Stockholms […] (decision 9967-2017). The fish, fish housing, fish handling, and procedure for introducing the mixture of […] chemicals were very similar to our previous study with cationic surfactants;[5] details are provided in Text S1. The experiment consisted of a 4-day exposure phase and a 7-day depuration phase. […] Water samples were collected and fish were sacrificed according to the schedule in Table S4. The water samples were collected just prior to the daily removal of feces from the aquarium. Triplicate samples were taken at each time point. […] The water/methanol mixture was analyzed using liquid chromatography-mass spectrometry (LC-MS)/MS as described below for fish. At each fish sampling, five fish were sacrificed. Following stunning and severance of the spinal cord, the whole fish were placed in a polyethylene bag, weighed, and immediately frozen at -20 °C. The weight of the individual fish at sacrifice was 24.0 ± 5.6 g. Three of the five fish from each time point were prioritized for analysis based on proximity to the median fish weight. Each fish was […] homogenized with an Ultra-turrax dispersing device. […] This mixture was homogenized in a bullet blender for 5 min and then placed in an ultrasound bath at 45 °C for 15 min. Following centrifugation for 15 min@3200 RCF, the supernatant was decanted and the extraction was repeated. The extracts were combined. For instrumental analysis, 5 μL of the fish extract or 60 μL of the water/methanol mixture (water samples) was separated on an Acquity UPLC BEH C18 column fitted with a BEH C18 pre-column and analyzed on a TSQ Quantiva triple quadrupole mass spectrometer. The mobile phase was methanol (10 mM ammonium acetate) and Milli-Q-filtered water (10 mM ammonium acetate) (see Table S5 for the liquid chromatography program). To avoid detergent blank peaks originating from cleaning mobile phase bottles, the methanol was prepared directly in the solvent bottle as delivered and Milli-Q was tapped into an empty methanol bottle. Furthermore, a guard column was fitted between the mobile phase and the autosampler to prevent background contamination from disturbing the analysis. All analytes were quantified against the BEHP internal standard, as it gave better reproducibility. […] The central goal of the analysis was to estimate kU and kT as well as the BCF (=kU/kT) from measurements of surfactant concentration in fish and water samples collected at different time points of the experiment. For the fish, only those time points were included for which CF(measured) was above the limit of quantitation (LOQ) in all three fish (data below the LOQ will have a positive bias; including them would result in a negative bias in kT). In this analysis, there exist two sources of uncertainty: first, uncertainty in the actual concentration in water CW at the time of sample collection and second, variability in the concentration in fish around the (expected) surfactant concentrations in fish assumed to follow model (1). We therefore set up a model in which we considered uncertainty in both water and fish measurements simultaneously by assuming a parametric model for the surfactant concentration in the water over time (either linear or quadratic) and accounted for the uncertainty in the corresponding parameters of the water model during the estimation of kU and kT. This was done in a joint Bayesian model that we estimated via Hamiltonian Monte Carlo. […]

[1] = determined using nominal concentrations in water
[2] = from measured concentrations in water, Bayesian estimate, 95% credible interval in brackets
[3] = measured concentrations in water, simpler estimation method (Text S3), 95% confidence intervals in brackets

CCCCCCCCCCCOS(=O)(=O)O [C11SO4, undecylsulfate]
BCF [1]: 0.57 L kg-1 ww | Elimination rate constant kT [1]: 0.233 h⁻¹ | Uptake rate constant kU [1]: 0.133 L/kg/h | Log BCF (determined with measured concentrations in water): -0.11 L kg-1 ww | Concentration in fish (elimination phase, 97 h): 5.9 ng g-1 ww and 5.5 ng g-1 ww and 6.7 ng g-1 ww | Concentration in fish (elimination phase, 98 h): 4.6 ng g-1 ww and 4.4 ng g-1 ww and 3.8 ng g-1 ww | Concentration in fish (elimination phase, 100 h): 6.6 ng g-1 ww and 3.0 ng g-1 ww and 3.5 ng g-1 ww | Concentration in fish (elimination phase, 103 h): 1.5 ng g-1 ww and 2.0 ng g-1 ww and 2.7 ng g-1 ww | Concentration in fish (elimination phase, 120 h): 1.06 ng g-1 ww and 0.77 ng g-1 ww and 0.51 ng g-1 ww | Concentration in fish (elimination phase, 128 h): 0.66 ng g-1 ww and 0.48 ng g-1 ww and 0.54 ng g-1 ww | Concentration in fish (elimination phase, 144 h): 0.53 ng g-1 ww and 0.27 ng g-1 ww and 0.19 ng g-1 ww | Concentration in fish (elimination phase, 168 h): 0.59 ng g-1 ww and 0.22 ng g-1 ww and 0.17 ng g-1 ww | Concentration in fish (elimination phase, 192 h): 0.08 ng g-1 ww and 0.13 ng g-1 ww and 0.09 ng g-1 ww | Concentration in fish (elimination phase, 264 h): 0.84 ng g-1 ww and 0.15 ng g-1 ww (2×) | Concentration in fish (exposure phase, 1 h): 3.1 ng g-1 ww and 3.6 ng g-1 ww and 4.1 ng g-1 ww | Concentration in fish (exposure phase, 2 h): 5.6 ng g-1 ww and 4.4 ng g-1 ww and 4.1 ng g-1 ww | Concentration in fish (exposure phase, 3 h): 7.5 ng g-1 ww and 9.4 ng g-1 ww and 7.6 ng g-1 ww | Concentration in fish (exposure phase, 4 h): 10.7 ng g-1 ww and 11.2 ng g-1 ww and 18.0 ng g-1 ww | Concentration in fish (exposure phase, 6 h): 15.8 ng g-1 ww and 14.7 ng g-1 ww and 14.1 ng g-1 ww | Concentration in fish (exposure phase, 24 h): 18.5 ng g-1 ww and 15.1 ng g-1 ww and 10.9 ng g-1 ww | Concentration in fish (exposure phase, 48 h): 7.4 ng g-1 ww and 12.0 ng g-1 ww and 11.2 ng g-1 ww | Concentration in fish (exposure phase, 72 h): 12.6 ng g-1 ww and 8.7 ng g-1 ww and 8.2 ng g-1 ww | Concentration in fish (exposure phase, 96 h): 9.9 ng g-1 ww and 8.7 ng g-1 ww and 14.1 ng g-1 ww | Elimination rate constant kT [2]: 0.178 (0.151–0.206) h^–1 | Uptake rate constant kU [2]: 0.136 (0.113–0.163) L kg^–1 ww h^–1 | diffusion coefficient (D) in the epithelial membrane of the gills (in vivo): 3.7 × 10^–8 m h^–1 | BCF (kinetic) (kinetic BCF from measured concentrations in water, 95% credible interval in brackets): 0.77 (0.68–0.87) L kg^–1 ww | BCF [3]: 0.74 (33) L kg-1 ww | Elimination rate constant kT [3]: 0.179 (19) h-1 | Uptake rate constant kU [3]: 0.133 (27) L kg-1 ww h-1 | BCF (own values): 0.77 L kg^–1
